The source made the active and inactive calls. No cut-off for these calls is given here.
Target: Replicase polyprotein 1ab (Severe acute respiratory syndrome-related coronavirus) (UniProt P0C6X7)
Details: dose 5.0 µM, time 30.0 min

SMILES	inhibition [%]
CCN(C[C@H]1O[C@@H](n2cnc3c(=O)[nH]cnc32)[C@H](O)[C@@H]1O)S(=O)(=O)c1ccc(OC)c([N+](=O)[O-])c1	69.8
COc1ccc(S(=O)(=O)N(C)C[C@H]2O[C@@H](n3cc(C#Cc4cnc5ccccc5c4)c4c(N)ncnc43)[C@H](O)[C@@H]2O)cc1[N+](=O)[O-]	0.8
CCN(C[C@H]1O[C@@H](n2cnc3c(NC)ncnc32)[C@H](O)[C@@H]1O)S(=O)(=O)c1ccc(C)c(Cl)c1	10.9
COc1ccc(S(=O)(=O)NC[C@H]2O[C@@H](n3cnc4c(=O)[nH]cnc43)[C@H](O)[C@@H]2O)cc1[N+](=O)[O-]	91.7
CCN(C[C@H]1O[C@@H](n2cnc3c(=O)[nH]cnc32)[C@H](O)[C@@H]1O)S(=O)(=O)c1ccc(Cl)c(C)c1	91
CCN(C[C@H]1O[C@@H](n2cnc3c(NC)ncnc32)[C@H](O)[C@@H]1O)S(=O)(=O)c1ccc(OC)c([N+](=O)[O-])c1	16.4
CNc1ncnc2c1ncn2[C@@H]1O[C@H](CNS(=O)(=O)c2ccc(OC)c(C#N)c2)[C@@H](O)[C@H]1O	45.1

Target: Replicase polyprotein 1ab (Severe acute respiratory syndrome coronavirus 2) (UniProt P0DTD1)
Details: dose 5.0 µM, time 30.0 min, values are per cent of control

SMILES	residual activity [%]
CCN(C[C@H]1O[C@@H](n2cnc3c(=O)[nH]cnc32)[C@H](O)[C@@H]1O)S(=O)(=O)c1ccc(OC)c([N+](=O)[O-])c1	56.4
COc1ccc(S(=O)(=O)N(C)C[C@H]2O[C@@H](n3cc(C#Cc4cnc5ccccc5c4)c4c(N)ncnc43)[C@H](O)[C@@H]2O)cc1[N+](=O)[O-]	0
CCN(C[C@H]1O[C@@H](n2cnc3c(NC)ncnc32)[C@H](O)[C@@H]1O)S(=O)(=O)c1ccc(C)c(Cl)c1	8.3
COc1ccc(S(=O)(=O)NC[C@H]2O[C@@H](n3cnc4c(=O)[nH]cnc43)[C@H](O)[C@@H]2O)cc1[N+](=O)[O-]	93.6
CCN(C[C@H]1O[C@@H](n2cnc3c(=O)[nH]cnc32)[C@H](O)[C@@H]1O)S(=O)(=O)c1ccc(Cl)c(C)c1	75.5
CCN(C[C@H]1O[C@@H](n2cnc3c(NC)ncnc32)[C@H](O)[C@@H]1O)S(=O)(=O)c1ccc(OC)c([N+](=O)[O-])c1	10.3
CNc1ncnc2c1ncn2[C@@H]1O[C@H](CNS(=O)(=O)c2ccc(OC)c(C#N)c2)[C@@H](O)[C@H]1O	25.4

Target: Nonstructural protein 5 (Dengue virus) (UniProt V5TFZ2)
Details: dengue virus type 3; dose 5.0 µM, time 30.0 min

SMILES	inhibition
CCN(C[C@H]1O[C@@H](n2cnc3c(=O)[nH]cnc32)[C@H](O)[C@@H]1O)S(=O)(=O)c1ccc(OC)c([N+](=O)[O-])c1	86.4%
COc1ccc(S(=O)(=O)N(C)C[C@H]2O[C@@H](n3cc(C#Cc4cnc5ccccc5c4)c4c(N)ncnc43)[C@H](O)[C@@H]2O)cc1[N+](=O)[O-]	inactive
CCN(C[C@H]1O[C@@H](n2cnc3c(NC)ncnc32)[C@H](O)[C@@H]1O)S(=O)(=O)c1ccc(C)c(Cl)c1	inactive
COc1ccc(S(=O)(=O)NC[C@H]2O[C@@H](n3cnc4c(=O)[nH]cnc43)[C@H](O)[C@@H]2O)cc1[N+](=O)[O-]	inactive
CCN(C[C@H]1O[C@@H](n2cnc3c(=O)[nH]cnc32)[C@H](O)[C@@H]1O)S(=O)(=O)c1ccc(Cl)c(C)c1	inactive
CCN(C[C@H]1O[C@@H](n2cnc3c(NC)ncnc32)[C@H](O)[C@@H]1O)S(=O)(=O)c1ccc(OC)c([N+](=O)[O-])c1	90%

Target: T1, mRNA cap guanine-N(7) methyltransferase (Homo sapiens, UniProt O43148)
Details: dose 5.0 µM, time 30.0 min

T1 sequence (O43148 whole entry): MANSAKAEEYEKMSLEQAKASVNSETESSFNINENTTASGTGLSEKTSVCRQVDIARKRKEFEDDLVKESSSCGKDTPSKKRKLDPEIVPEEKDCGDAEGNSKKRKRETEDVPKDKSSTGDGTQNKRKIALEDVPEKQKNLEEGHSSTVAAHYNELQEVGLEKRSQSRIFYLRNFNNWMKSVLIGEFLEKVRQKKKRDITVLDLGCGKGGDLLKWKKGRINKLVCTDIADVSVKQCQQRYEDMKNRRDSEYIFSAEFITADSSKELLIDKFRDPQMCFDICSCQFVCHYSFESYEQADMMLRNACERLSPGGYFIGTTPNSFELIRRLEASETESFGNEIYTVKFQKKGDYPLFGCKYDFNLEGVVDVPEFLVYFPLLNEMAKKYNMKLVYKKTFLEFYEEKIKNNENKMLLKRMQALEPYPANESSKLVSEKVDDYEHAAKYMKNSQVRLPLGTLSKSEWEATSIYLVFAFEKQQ

SMILES	inhibition
CCN(C[C@H]1O[C@@H](n2cnc3c(=O)[nH]cnc32)[C@H](O)[C@@H]1O)S(=O)(=O)c1ccc(OC)c([N+](=O)[O-])c1	inactive
COc1ccc(S(=O)(=O)N(C)C[C@H]2O[C@@H](n3cc(C#Cc4cnc5ccccc5c4)c4c(N)ncnc43)[C@H](O)[C@@H]2O)cc1[N+](=O)[O-]	49.9%
CCN(C[C@H]1O[C@@H](n2cnc3c(NC)ncnc32)[C@H](O)[C@@H]1O)S(=O)(=O)c1ccc(C)c(Cl)c1	78%
COc1ccc(S(=O)(=O)NC[C@H]2O[C@@H](n3cnc4c(=O)[nH]cnc43)[C@H](O)[C@@H]2O)cc1[N+](=O)[O-]	inactive
CCN(C[C@H]1O[C@@H](n2cnc3c(=O)[nH]cnc32)[C@H](O)[C@@H]1O)S(=O)(=O)c1ccc(Cl)c(C)c1	inactive
CCN(C[C@H]1O[C@@H](n2cnc3c(NC)ncnc32)[C@H](O)[C@@H]1O)S(=O)(=O)c1ccc(OC)c([N+](=O)[O-])c1	73.3%
CNc1ncnc2c1ncn2[C@@H]1O[C@H](CNS(=O)(=O)c2ccc(OC)c(C#N)c2)[C@@H](O)[C@H]1O	inactive

Target: Replicase polyprotein 1ab (Severe acute respiratory syndrome coronavirus 2, UniProt P0DTD1)
Details: not given

SMILES	IC50 [nM]
COc1ccc(S(=O)(=O)N(C)C[C@H]2O[C@@H](n3cc(C#Cc4cnc5ccccc5c4)c4c(N)ncnc43)[C@H](O)[C@@H]2O)cc1[N+](=O)[O-]	1.3
CCN(C[C@H]1O[C@@H](n2cnc3c(NC)ncnc32)[C@H](O)[C@@H]1O)S(=O)(=O)c1ccc(C)c(Cl)c1	130
CCN(C[C@H]1O[C@@H](n2cnc3c(NC)ncnc32)[C@H](O)[C@@H]1O)S(=O)(=O)c1ccc(OC)c([N+](=O)[O-])c1	274
CNc1ncnc2c1ncn2[C@@H]1O[C@H](CNS(=O)(=O)c2ccc(OC)c(C#N)c2)[C@@H](O)[C@H]1O	468

Target: Replicase polyprotein 1ab (Severe acute respiratory syndrome-related coronavirus, UniProt P0C6X7)
Details: not given

SMILES	IC50 [nM]
CNc1ncnc2c1ncn2[C@@H]1O[C@H](CNS(=O)(=O)c2ccc(OC)c(C#N)c2)[C@@H](O)[C@H]1O	3990

Target: T1, mRNA cap guanine-N(7) methyltransferase
Details: not given

SMILES	IC50 [nM]
CNc1ncnc2c1ncn2[C@@H]1O[C@H](CNS(=O)(=O)c2ccc(OC)c(C#N)c2)[C@@H](O)[C@H]1O	56200

Target: Nonstructural protein 5 (Dengue virus, UniProt V5TFZ2)
Set-up: species or system dengue virus type 3
Details: not given

SMILES	IC50
CNc1ncnc2c1ncn2[C@@H]1O[C@H](CNS(=O)(=O)c2ccc(OC)c(C#N)c2)[C@@H](O)[C@H]1O	Not Active

Test system: Severe acute respiratory syndrome coronavirus 2
Details: time 30.0 min

SMILES	inhibition
CNc1ncnc2c1ncn2[C@@H]1O[C@H](CNS(=O)(=O)c2ccc(OC)c(C#N)c2)[C@@H](O)[C@H]1O	inactive

Test system: not listed separately
Experiment: Cytotoxicity against Green monkey VeroE6/TMPRSS2 cells assessed as reduction in cell viability upto 10 uM by CellTiter Blue assay
Format: toxicity, cell-based
Details: chlorocebus sabaeus, veroe6/tmprss2, 10 µM

SMILES	Activity
COc1ccc(S(=O)(=O)N(C)C[C@H]2O[C@@H](n3cc(C#Cc4cnc5ccccc5c4)c4c(N)ncnc43)[C@H](O)[C@@H]2O)cc1[N+](=O)[O-]	Non-Toxic

Test system: SARS-CoV-2
Experiment: Antiviral activity against SARS-CoV-2 B.1 infected in Green monkey VeroE6/TMPRSS2 cells assessed as viral replication inhibition at 10 uM incubated for 2 days by qRT-PCR analysis relative to control
Format: functional, Severe acute respiratory syndrome coronavirus 2
Set-up: scale not given: the % may be the effect or the level left
Details: time 2 day

SMILES	Activity [%]
COc1ccc(S(=O)(=O)N(C)C[C@H]2O[C@@H](n3cc(C#Cc4cnc5ccccc5c4)c4c(N)ncnc43)[C@H](O)[C@@H]2O)cc1[N+](=O)[O-]	50

Reference: ChEMBL document CHEMBL5370550, “Structure-guided optimization of adenosine mimetics as selective and potent inhibitors of coronavirus nsp14 N7-methyltransferases” (Eur J Med Chem, 2023)
